Two molecules from ChEMBL document CHEMBL1150730, “Secondary metabolites from Fusarium. Two new modified trichothecenes from Fusarium sporotrichioides MC-72083” (J Nat Prod, 1987) can be followed below.

The nature of the series: Toxicity in chick embryo measured per egg after 4 days. More on the design: species or system Gallus gallus. Particulars: chicken, 96 h.

For `CC1=C[C@@H]2OC[C@]3(O)C(=O)CC[C@]3(C)[C@@]2(C)C[C@H]1O`, the LD50 was greater than 10 µg. `CC1=C[C@@H]2OC[C@]3(O)C(=O)CC[C@]3(C)[C@@]2(C)C[C@@H]1O`: the LD50 was greater than 10 µg.
